Holding throughout (type): in vivo
Assay [1] has as its system Avena fatua (AVEFA). As to the kind of experiment: Post-emergence herbicidal activity, glasshouse pot test. The conditions noted are these: 312 h, rate 250 g/ha, evaluated after 13 days, read-out: Post-emergence activity, AVEFA (100=total damage to plant; 0=no damage to plant). On the procedure: (§1) Seeds of a variety of test species were sown in standard soil in pots. After cultivation for one day (pre-emergence) or after 8 days cultivation (post-emergence) under controlled conditions in a glasshouse (at 24/16° C., day/night; 14 hours light; 65% humidity), the plants were sprayed with an aqueous spray solution derived from the formulation of the technical active ingredient in acetone/water (50:50) solution containing 0.5% Tween 20 (polyoxyethelyene sorbitan monolaurate, CAS RN 9005-64-5). The test plants were then grown in a glasshouse under controlled conditions in a glasshouse (at 24/16° C., day/night; 14 hours light; 65% humidity) and watered twice daily. After 13 days for pre and post-emergence, the test was evaluated (100=total damage to plant; 0=no damage to plant).
(§2) Test plants: Setaria faberi (SETFA), Lolium perenne (LOLPE), Alopecurus myosuroides (ALOMY), Echinochloa crus-galli (ECHCG), and Avena fatua (AVEFA)

The subject of assay [2] is Alopecurus myosuroides (ALOMY). The assay is described as above. The settings on record: 312 h, rate 250 g/ha, evaluated after 13 days, read-out: Post-emergence activity, ALOMY (100=total damage to plant; 0=no damage to plant). On the procedure: as §1, §2
The test system of assay [3] is Lolium perenne (LOLPE). The assay is described as above. The settings on record: 312 h, rate 250 g/ha, evaluated after 13 days, read-out: Post-emergence activity, LOLPE (100=total damage to plant; 0=no damage to plant). How it is done: as §1, §2
Assay [4] deals with Echinochloa crus-galli (ECHCG). The description is as above. The conditions noted are these: 312 h, rate 250 g/ha, evaluated after 13 days, read-out: Post-emergence activity, ECHCG (100=total damage to plant; 0=no damage to plant). How it is done:
as §1, §2

Assay [5] deals with Avena fatua (AVEFA). In words: Pre-emergence herbicidal activity, glasshouse pot test. The conditions noted are these: 312 h, Rate 250 g/ha, sprayed one day after sowing, evaluated after 13 days, 100=total damage to plant, 0=no damage to plant. How it is done: as §1, with “plant). Test plants: Setaria faberi (SETFA), Lolium perenne (LOLPE), Alopecurus myosuroides (ALOMY), Echinochloa crus-galli (ECHCG), and Avena fatua (AVEFA) Pre-Emergence Activity” for “plant).”

Assay [6] relates to Alopecurus myosuroides (ALOMY). Described as above. The conditions noted are these: 312 h, Rate 250 g/ha, sprayed one day after sowing, evaluated after 13 days, 100=total damage to plant, 0=no damage to plant. On the procedure:
as §1, with “plant). Test plants: Setaria faberi (SETFA), Lolium perenne (LOLPE), Alopecurus myosuroides (ALOMY), Echinochloa crus-galli (ECHCG), and Avena fatua (AVEFA) Pre-Emergence Activity” for “plant).”

Assay [7] deals with Lolium perenne (LOLPE). The description is as above. The settings on record: 312 h, Rate 250 g/ha, sprayed one day after sowing, evaluated after 13 days, 100=total damage to plant, 0=no damage to plant. On the procedure: as §1, with “plant). Test plants: Setaria faberi (SETFA), Lolium perenne (LOLPE), Alopecurus myosuroides (ALOMY), Echinochloa crus-galli (ECHCG), and Avena fatua (AVEFA) Pre-Emergence Activity” for “plant).”

Assay [8] deals with Echinochloa crus-galli (ECHCG). The assay is described as above. The settings on record: 312 h, Rate 250 g/ha, sprayed one day after sowing, evaluated after 13 days, 100=total damage to plant, 0=no damage to plant. On the procedure:
as §1, with “plant). Test plants: Setaria faberi (SETFA), Lolium perenne (LOLPE), Alopecurus myosuroides (ALOMY), Echinochloa crus-galli (ECHCG), and Avena fatua (AVEFA) Pre-Emergence Activity” for “plant).”

Structures are written as SMILES.

`CCc1ccc(-c2ccc(Cl)c(F)c2)cc1C1=C(O)CCC1=O` [Compound T-9]: the pest or weed control at 250 g/ha was 60% in assay [1]; 30% in assay [2]; 60% in assay [3]; 100% in assay [4]; 50% in assay [5]; 60% in assay [6]. Also, the pest or weed control at 250 g/ha turned out to be 80% in assay [7] and 90% in assay [8].

`CCc1ccc(-c2ccc(F)cc2)cc1C1=C(O)CCC1=O` [Compound T-17]: the pest or weed control at 250 g/ha in assay [1] is 40%; in assay [2], 50%; in assay [3], 50%; in assay [4] it was 70%; in assay [5], 0%; in assay [6], 40%. Further, the pest or weed control at 250 g/ha in assay [7] amounted to 60%; in assay [8], 80%.

`O=C1CCC(O)=C1c1cc(-c2ccc(Cl)cc2Cl)ccc1C1CC1` [Compound T-24, 2-(2′,4′-dichloro-4-cyclopropylbiphenyl-3-yl)-cyclopentane-1,3-dione]: the pest or weed control at 250 g/ha came to 10% in assay [1]; 30% in assay [2]; 50% in assay [3]; 100% in assay [4]; 0% in assay [5]; 0% in assay [6]. Also, the values for the pest or weed control at 250 g/ha in assay [7] and in assay [8] were 50% and 80%, respectively.

With `CCc1ccc(-c2ccc(Cl)cc2)cc1C1=C(O)C2CSCC2C1=O` (centres unmarked) [Compound T-2, 5-(4′-Chloro-4-ethylbiphenyl-3-yl)-tetrahydrocyclopenta[c]thiophene-4,6-dione], the pest or weed control at 250 g/ha stood at 80% in assay [1]; 20% in assay [2]; 0% in assay [3]; 100% in assay [4]; 0% in assay [5]; 0% in assay [6]. The pest or weed control at 250 g/ha in assay [7] stood at 0%; in assay [8] it was 70%.

As for `CCc1ccc(-c2ccc(Cl)c(C(F)(F)F)c2F)cc1C1=C(O)CCC1=O` [Compound T-19], the pest or weed control at 250 g/ha in assay [1] was found to be 20%; in assay [2] it was 60%; in assay [3], 60%; in assay [4], 70%; in assay [5], 0%; in assay [6], 0%. Further, the pest or weed control at 250 g/ha in assay [7] was found to be 20%; in assay [8], 10%.

Take `CCc1ccc(-c2ccc(Cl)c(F)c2F)cc1C1=C(O)CCC1=O` [Compound T-12]: the pest or weed control at 250 g/ha in assay [1] worked out at 50%; in assay [2] it was 50%; in assay [3], 50%; in assay [4], 90%; in assay [5] it was 30%; in assay [6], 40%. Moreover, the pest or weed control at 250 g/ha in assay [7] and in assay [8] was 50% each time.

As for `CCc1ccc(-c2ccc(Cl)cc2C)cc1C1=C(O)CCC1=O` [Compound T-4], the pest or weed control at 250 g/ha in assay [1] was determined as 0%; in assay [2], 50%; in assay [3], 30%; in assay [4], 70%; in assay [5] it was 10%; in assay [6], 50%. Also, the pest or weed control at 250 g/ha was determined as 60% in assay [7] and 50% in assay [8].

(Values after patent US8530388B2, “Cyclopentadione derived herbicides” (Syngenta Limited, priority 2009, dated 2013).)
